“Also recorded” adds a separate entry of the source.
Experiments:
[1] = system: IL-23-induced psoriatic-like inflammation; experiment: IL-23-induced mouse model of psoriasis (ear thickness); format: in vivo, C57BL/6N mice; settings: days 2-4, i.p. PhotoVDRM 0.5 mg/kg
Procedure: Each mice was administered interlueukin 23 (IL-23) once a day for a total of 3 days by intradermal injection (i.d.) into one of the mouse ears. Contralateral ear i.d. injected with PBS was used as control. Subsequently, ear thickness was measured daily, by using a digital caliper, as indicative of psoriasis-course progression (Figure A).
(A) Temporal scheme for IL-23-induced mouse model of psoriasis. Animals were treated with IL-23 (i.d.) in the left ear during three consecutive days (days 1, 2 and 3). In addition, a contralateral control was performed consisting of PBS administration in the right ear. At day 2, 3, and 4 animals were previously intraperitoneally (i.p.) administered with vehicle (saline) and drugs (i.e., LSN2148936; 0.005 mg/kg and PhotoVDRM; 0.5 mg/kg). Both ears were irradiated with 420 or 520 nm light at day 2, 3, and 4 during 8 min. […] (C) Inflammatory ear response measurements. Mice ear thickness determination in animals administrated (ip) on days 2, 3, and 4 with vehicle, LSN2148936 or PhotoVDRM treated with 420 or 520 nm light. Each day, ear thickness was measured in millimeters and represented as percentage of ear thickness increase using the first measurement of PBS-administrated ear as control. Data is shown as mean ± SD, n = 5 mice per group. Statistical analysis between PhotoVDRM and vehicle. *P < 0.05 and **P < 0.01 Student’s t test.

[2] = target: VDR (Homo sapiens, UniProt P11473); experiment: Luminescent proximity homogeneous assay (AlphaScreen): interaction of purified VDR, RxR and TRAP220 coactivator fragment; format: biochemical; settings: UVB narrowband light (315 nm) and visible illumination at 420 nm
Chain of VDR (P11473 whole entry, the tested form may be a part): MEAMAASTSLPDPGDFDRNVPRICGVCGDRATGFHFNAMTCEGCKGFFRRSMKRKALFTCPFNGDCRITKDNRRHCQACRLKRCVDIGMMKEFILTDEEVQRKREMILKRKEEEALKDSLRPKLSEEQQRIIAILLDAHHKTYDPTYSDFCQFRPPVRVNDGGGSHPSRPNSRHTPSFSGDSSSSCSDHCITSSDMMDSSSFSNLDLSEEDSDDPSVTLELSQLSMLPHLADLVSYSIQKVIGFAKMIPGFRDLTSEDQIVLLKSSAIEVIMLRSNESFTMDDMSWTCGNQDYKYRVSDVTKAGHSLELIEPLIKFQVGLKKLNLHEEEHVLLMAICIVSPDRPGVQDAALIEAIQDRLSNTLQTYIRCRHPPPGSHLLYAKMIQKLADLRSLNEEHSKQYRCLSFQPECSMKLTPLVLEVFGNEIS
Chain of VDR (P19793 whole entry partner, the tested form may be a part): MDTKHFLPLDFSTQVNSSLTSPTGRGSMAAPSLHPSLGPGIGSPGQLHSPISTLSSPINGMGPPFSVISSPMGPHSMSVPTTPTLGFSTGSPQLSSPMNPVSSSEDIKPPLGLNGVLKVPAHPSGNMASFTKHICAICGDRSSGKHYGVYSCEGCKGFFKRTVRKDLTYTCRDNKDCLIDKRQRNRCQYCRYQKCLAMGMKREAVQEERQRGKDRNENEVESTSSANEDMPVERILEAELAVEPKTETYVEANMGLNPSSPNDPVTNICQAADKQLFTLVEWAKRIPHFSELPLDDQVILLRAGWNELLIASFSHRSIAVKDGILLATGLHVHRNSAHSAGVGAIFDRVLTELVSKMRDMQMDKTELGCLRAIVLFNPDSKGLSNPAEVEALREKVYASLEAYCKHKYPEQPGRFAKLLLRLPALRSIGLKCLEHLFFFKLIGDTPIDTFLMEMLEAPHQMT
Chain of VDR (Q15648 whole entry partner, the tested form may be a part): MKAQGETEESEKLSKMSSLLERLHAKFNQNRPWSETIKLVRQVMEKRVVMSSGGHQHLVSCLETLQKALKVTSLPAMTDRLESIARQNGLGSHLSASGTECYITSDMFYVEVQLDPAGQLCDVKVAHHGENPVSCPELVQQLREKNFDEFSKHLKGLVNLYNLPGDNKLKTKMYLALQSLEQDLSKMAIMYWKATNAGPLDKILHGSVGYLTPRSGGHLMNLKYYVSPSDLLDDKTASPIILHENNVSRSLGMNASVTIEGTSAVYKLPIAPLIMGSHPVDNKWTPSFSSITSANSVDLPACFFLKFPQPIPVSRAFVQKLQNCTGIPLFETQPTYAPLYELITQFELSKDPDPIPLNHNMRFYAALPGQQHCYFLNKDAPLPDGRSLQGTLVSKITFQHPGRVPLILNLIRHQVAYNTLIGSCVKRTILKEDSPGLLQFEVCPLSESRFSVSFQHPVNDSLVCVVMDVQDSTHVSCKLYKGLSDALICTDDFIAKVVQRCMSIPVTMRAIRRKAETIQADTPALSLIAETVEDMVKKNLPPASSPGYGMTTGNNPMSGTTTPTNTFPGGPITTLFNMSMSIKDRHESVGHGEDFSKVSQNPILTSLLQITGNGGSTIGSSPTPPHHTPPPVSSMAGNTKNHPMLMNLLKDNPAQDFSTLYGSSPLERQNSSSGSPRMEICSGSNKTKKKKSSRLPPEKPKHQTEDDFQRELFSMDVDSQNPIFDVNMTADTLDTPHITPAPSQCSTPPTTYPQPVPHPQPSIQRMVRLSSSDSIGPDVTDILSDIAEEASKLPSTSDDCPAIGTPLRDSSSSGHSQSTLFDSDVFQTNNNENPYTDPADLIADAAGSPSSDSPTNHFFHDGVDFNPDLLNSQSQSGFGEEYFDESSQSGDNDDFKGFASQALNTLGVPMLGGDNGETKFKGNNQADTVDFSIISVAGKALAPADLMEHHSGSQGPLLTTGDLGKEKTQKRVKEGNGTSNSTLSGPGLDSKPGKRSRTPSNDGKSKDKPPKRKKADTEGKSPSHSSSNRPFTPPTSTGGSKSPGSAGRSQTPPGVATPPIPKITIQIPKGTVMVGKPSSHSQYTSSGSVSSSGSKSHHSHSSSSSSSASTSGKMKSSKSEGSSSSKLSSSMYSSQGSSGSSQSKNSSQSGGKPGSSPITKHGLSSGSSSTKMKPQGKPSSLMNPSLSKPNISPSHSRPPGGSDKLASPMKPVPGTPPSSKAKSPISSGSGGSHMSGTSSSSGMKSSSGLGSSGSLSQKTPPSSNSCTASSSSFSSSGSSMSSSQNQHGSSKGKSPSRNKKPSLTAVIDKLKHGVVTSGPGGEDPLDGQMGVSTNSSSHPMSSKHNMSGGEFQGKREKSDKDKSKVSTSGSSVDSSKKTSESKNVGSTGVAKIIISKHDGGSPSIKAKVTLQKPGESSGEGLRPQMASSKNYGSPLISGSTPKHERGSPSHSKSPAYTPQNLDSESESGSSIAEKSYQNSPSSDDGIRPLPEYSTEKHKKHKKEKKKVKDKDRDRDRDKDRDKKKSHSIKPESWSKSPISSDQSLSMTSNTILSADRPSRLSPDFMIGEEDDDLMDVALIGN

[3] = Photoisomerization quantum yield (MATLAB regression); format: physicochemical
Procedure: The UV–vis absorbance spectra of all molecules were measured in the dark and after the application of light of different wavelengths ranging from 365 to 770 nm (Figure A and Figures S1–S3). […] Consequently, violet/UV light below 405 nm efficiently promoted photoisomerization, which produced a dramatic decrease in the π-π* band and a significant increase in the n-π* band at around 445 nm (Table ). […] The proportion of molecules at the PSS in trans isomer upon constant illumination with light at 525 nm and cis at 365 nm was in general above 50%, reaching a remarkable >99% for compound 11d (Table and Figures S4 and S5). […] The greater stability of the trans isomer was consistent with previous quantum mechanical and molecular mechanics predictions. Measuring the photoisomerization properties of compound PhotoVDRM allowed us to determine the photoisomerization quantum yields of the compound by solving a differential equation for photoisomerization. We used MATLAB to perform regression and arrive at the following photoisomerization quantum yields: ϕ365 nm (trans) = 0.0427, ϕ365 nm (cis) = 0.0501, ϕ470 nm (trans) = 0.1857, and ϕ470 nm (cis) = 0.2281 (Figure S9). Compound PhotoVDRM was also evaluated in aqueous buffer used for pharmacological experiments (0.5% DMSO) showing a thermal relaxation of 3 h, almost 7 times faster than in pure DMSO (Figure B). […] A deeper photocharacterization of PhotoVDRM allowed us to measure the kinetics of photoconversion upon constant illumination with two wavelengths and three light intensities (Figure D and Figure S10). […] Indeed, with LED devices producing light at intensities as low as 0.05 mW/mm^2 we were able to transform trans to cis in around 15.5 s. This time was reduced to 6 and 2 s when the light intensity was increased to 0.15 and 0.75 mW/mm^2. […] Therefore, we proceeded to test the ability of the chemical library to activate the VDR under different light conditions.

[4] = target: T1, VDR-LBD (Homo sapiens, UniProt P11473); experiment: HDX-MS of VDR-LBD with ligand in the dark and under 365 nm light; format: binding
T1 construct: VDR-LBD protein stock solution was prepared in 20 mM HEPES buffer
T1 sequence (P11473 127-423 limits assumed): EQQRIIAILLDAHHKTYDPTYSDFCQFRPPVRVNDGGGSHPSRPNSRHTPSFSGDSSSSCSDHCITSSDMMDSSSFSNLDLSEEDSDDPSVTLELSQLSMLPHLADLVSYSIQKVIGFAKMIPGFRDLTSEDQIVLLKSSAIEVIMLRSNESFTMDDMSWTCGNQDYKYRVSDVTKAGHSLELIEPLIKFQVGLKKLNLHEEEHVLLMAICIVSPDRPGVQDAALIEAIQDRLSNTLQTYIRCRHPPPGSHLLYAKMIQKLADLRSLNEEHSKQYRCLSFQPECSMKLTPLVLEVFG
Procedure: Although previously used to study the effect of a cyclic azopeptide in its activated cis state, here we studied the target dynamics upon direct application of the light to the sample. To this aim, HDX-MS was applied for the characterization of the binding mode and modulation of receptor dynamics of the racemic compound PhotoVDRM. VDR-LBD was incubated alone (to provide an apo control for each experiment) or with an excess of compound PhotoVDRM and exposed to deuterium labeling for various periods of time, from 10 s to 2 h, in the dark and illuminated with light at 365 nm. […] As an additional control experiment, we also evaluated the HDX-MS of VDR-LBD in the presence and absence of a standard agonist, compound LSN2148936, in the dark and under illumination conditions. […] In order to permit direct comparison, including mathematical manipulation of the data in all these experiments, the observed deuterium incorporation percentages were converted to rate constants (expressed as −log10(k)) using our previously published Bayesian approach.
(Perkin Elmer, now Revvity, Cat.No. 6006290) in duplicate. Immediately, 54 µL of the protein solution were added and the plate was covered and incubated for 30 min at room temperature in the dark. Meanwhile, the plate with the 10X dilutions was illuminated at 365 nm for 3 min in a 96-well DED array plate (LEDA Teleopto), to allow the photoconversion of the molecules to their cis configuration. The illuminated compounds were mixed with the protein solution and incubated as described above for the plate in the dark. After the incubation time, the counts of both, the dark and illuminated plates, were measured in a Tecan Spark 20M Multimode plate reader with defined settings (excitation: 680 nm, emission: 520-620 nm, excitation time: 100ms, integration time: 300 ms). Biotinylated-His6 peptide (PerkinElmer) was used as a quality control reagent for AlphaScreen® assays and to evaluate compound interaction with the method. […] Dose-response curves and EC50 values were calculated with Graphpad software. […]

For Cc1cc(OCC(O)C(C)(C)C)ccc1N=Nc1cccc(-c2ccc(C(=O)O)cc2)c1 (stereo not drawn) [Compound 11b], the “IL-23-induced ear inflammation (ear thickness)” value ([1]; 420 nm light 8 min) was “significant reduction; also recorded: full antipsoriatic activity”, the “IL-23-induced ear inflammation (ear thickness)” value ([1]; 520 nm light 8 min) was “only partially reduces” and the “modulation of activity by light” value [2] was “modulated the activity”. The “photoisomerization quantum yield ϕ365 nm (cis)” value ([3]; 365 nm, cis) was 0.0501, the “photoisomerization quantum yield ϕ365 nm (trans)” value ([3]; 365 nm, trans) was 0.0427 and the “photoisomerization quantum yield ϕ470 nm (cis)” value ([3]; 470 nm, cis) was 0.2281. For the same compound, the “photoisomerization quantum yield ϕ470 nm (trans)” value ([3]; 470 nm, trans) was 0.1857, the “protection to H/D exchange” value ([4]; in the dark, vs under light) was “much lower” and the “protection to H/D exchange” value ([4]; under 365 nm light, vs reference agonist LSN2148936) was “comparable”.

Reference: publication PMC12746157, “Light-Regulated Agonists Spatiotemporally Activating the Vitamin D Receptor Mitigate Psoriasis-like Inflammation in Mice without Inducing Hypercalcemia” (ACS Central Science, 2025)
